Laboratory results published in patent US20040097502A1, “Pyrazoles as tgf inhibitors” (priority 2001, published 2004).

Key:
[1] = system: TGF-β signaling (PAI-1 promoter linked to firefly luciferase in HepG2 cells); assay: Assay 1: PAI-1 promoter luciferase reporter assay in HepG2 cells after exposure to TGF-β; type: cell-based; conditions: for IC50: Homo sapiens, HepG2 cells, PAI-1 promoter-luciferase, 1 ng/mL rhTGFβ-1, read-out: IC50 value in Assay 1 (inhibition of TGF-β induced firefly luciferase activity)
Protocol: The assay was performed in HepG2 cells stably transfected with the PAI-1 promoter (known to be a strong TGF-β responsive promoter) linked to a luciferase (firefly) reporter gene. The compounds were selected on their ability to inhibit luciferase activity after exposure to TGF-β. In addition cells were transfected with a second luciferase (Renilla) gene which was not driven by a TGF-β responsive promoter and was used as a toxicity control.
(96 well-)microplates are seeded, using a multidrop apparatus, with the stably transfected cell line at a concentration of 35000 cells per well in 200 μl of serum-containing medium. These plates are placed in a cell incubator.
18 to 24 hours later (Day 2), cell-incubation procedure is launched. Cells are incubated with TGF-β and a candidate compound at concentrations in the range 50 nM to 10 μM (final concentration of DMSO 1%). The final concentration of TGF-β (rhTGFβ-1) used in the test is 1 ng/mL. Cells are incubated with a candidate compound 15-30 mins prior to the addition of TGF-β. The final volume of the test reaction is 150 μl. Each well contains only one candidate compound and its effect on the PAI-1 promoter is monitored.
Columns 11 and 12 are employed as controls. Column 11 contains 8 wells in which the cells are incubated in the presence of TGF-β, without a candidate compound. Column 11 is used to determine the ‘reference TGF-β induced firefly luciferase value’ against which values measured in the test wells (to quantify inhibitory activity) may be compared. In wells A12 to D12, cells are grown in medium without TGF-β. The firefly luciferase values obtained from these positions are representive of the ‘basal firefly luciferase activity’. In wells E12 to H12, cells are incubated in the presence of TGF-β and 500 μM CPO (Cyclopentenone, Sigma), a cell toxic compound.
12 to 18 hours later (day 3), the luciferase quantification procedure is launched. The following reactions are performed using reagents obtained from a Dual Luciferase Assay Kit (Promega). Cells are washed and lysed with the addition of 10 μl of passive lysis buffer (Promega). Following agitation (15 to 30 mins), luciferase activities of the plates are read in a dual-injector luminometer (BMG lumistar). For this purpose, 50 μl of luciferase assay reagent and 50 μl of ‘Stop & Glo’ buffer are injected sequentially to quantify the activities of both luciferases. The mean Luciferase activity value obtained in wells A11 to H11 (Column 11, TGF-β only) is considered to represent 100% and values obtained in wells A12 to D12 (cells in medium alone) give a basal level (0%). For each of the compounds tested, a concentration response curve is constructed from which an IC50 value can be determined graphically.

Structure (SMILES)	firefly and renilla luciferase activities (toxicity control) ([1]; 500 μM CPO in the presence of TGF-β, % of those obtained in column 11 (TGF-β only))	melting point	IC50 [1]
O=C1C=CCC1 [CPO, Cyclopentenone, reference compound]	around 50%		
CC(C)Oc1cccc(Nc2cc(-c3c[nH]nc3-c3ccccn3)ccn2)c1 [Example 22, (3-Isopropoxy-phenyl)-[4-(3-pyridin-2-yl-1H-pyrazol-4-yl)-pyridin-2-yl]-amine]		218 °C	≤ 5 µM
N#Cc1cccc(Nc2cc(-c3c[nH]nc3-c3ccccn3)ccn2)c1 [Example 6]		228 °C	≤ 5 µM
COc1ccc(Nc2cc(-c3c[nH]nc3-c3ccccn3)ccn2)cc1OC [Example 13, (3,4-Dimethoxy-phenyl)-[4-(3-pyridin-2-yl-1H-pyrazol-4-yl)-pyridin-2-yl]-amine]		210 °C	≤ 5 µM
COc1cc(Nc2cc(-c3c[nH]nc3-c3ccccn3)ccn2)ccc1C#N [Example 7]		280 °C	≤ 5 µM
Cc1cccc(Nc2cc(-c3c[nH]nc3-c3ccccn3)ccn2)c1 [Example 11, [4-(3-Pyridin-2-yl-1H-pyrazol-4-yl)-pyridin-2-yl]-m-tolyl-amine]		194 °C	≤ 5 µM
O=C(c1ccc(Nc2cc(-c3c[nH]nc3-c3ccccn3)ccn2)cc1)N1CCOCC1 [Example 25, Morpholin-4-yl-{4-[4-(3-pyridin-2-yl-1H-pyrazol-4-yl)-pyridin-2-ylamino]-phenyl}methanone]		240 °C	≤ 5 µM
c1ccc(-c2n[nH]cc2-c2ccnc(NCc3ccco3)c2)nc1 [Example 4]		200 °C	≤ 5 µM
Clc1ccc(Nc2cc(-c3c[nH]nc3-c3ccccn3)ccn2)cc1 [Example 1]		216 °C	≤ 5 µM
Cn1ccnc1COc1cccc(Nc2cc(-c3c[nH]nc3-c3ccccn3)ccn2)c1 [Example 28, [3-(1-Methyl-1H-imidazol-2-ylmethoxy)-phenyl]-[4-(3-pyridin-2-yl-1H-pyrazol-4-yl)-pyridin-2-yl]-amine]		120 °C	≤ 5 µM
CN1CCN(C(=O)c2ccc(Nc3cc(-c4c[nH]nc4-c4ccccn4)ccn3)cc2)CC1 [Example 26, (4-Methyl-piperazin-1-yl)-{4-[4-(3-pyridin-2-yl-1H-pyrazol-4-yl)-pyridin-2-ylamino]-phenyl}-methanone]		200 °C	≤ 5 µM
COc1cc(Nc2cc(-c3c[nH]nc3-c3cccc(C)n3)ccn2)ccc1C#N [Example 24, 2-Methoxy-4-{4-[3-(6-methyl-pyridin-2-yl)-1H-pyrazol-4-yl]-pyridin-2-ylamino}-benzonitrile]		125 °C	≤ 5 µM
Cc1ccc(Nc2cc(-c3c[nH]nc3-c3ccccn3)ccn2)cc1C [Example 20, (3,4-Dimethyl-phenyl)-[4-(3-pyridin-2-yl-1H-pyrazol-4-yl)-pyridin-2-yl]-amine]		220 °C	≤ 5 µM
c1ccc(-c2n[nH]cc2-c2ccnc(Nc3cccc(OCCN4CCCC4)c3)c2)nc1 [Example 9]		141 °C	≤ 5 µM
Oc1ccc(Nc2cc(-c3c[nH]nc3-c3ccccn3)ccn2)cc1 [Example 16, 4-[4-(3-Pyridin-2-yl-1H-pyrazol-4-yl)-pyridin-2-ylamino]-phenol]		268 °C	≤ 5 µM
Clc1cccc(Nc2cc(-c3c[nH]nc3-c3ccccn3)ccn2)c1 [Example 10]		205 °C	≤ 5 µM
CS(=O)(=O)c1ccc(Nc2cc(-c3c[nH]nc3-c3ccccn3)ccn2)cc1 [Example 23, (4-Methanesulfonyl-phenyl)-[4-(3-pyridin-2-yl-1H-pyrazol-4-yl)-pyridin-2-yl]-amine]		134 °C	≤ 5 µM
N#Cc1cc(Nc2cc(-c3c[nH]nc3-c3ccccn3)ccn2)ccc1Cl [Example 15, 2-Chloro-5-[4-(3-pyridin-2-yl-1H-pyrazol-4-yl)-pyridin-2-ylamino]-benzonitrile]		250 °C	≤ 5 µM
c1ccc(-c2n[nH]cc2-c2ccnc(Nc3cccc(OCCN4CCCCC4)c3)c2)nc1 [Example 8]		115 °C	≤ 5 µM
Cc1cc(Nc2cc(-c3c[nH]nc3-c3ccccn3)ccn2)ccc1Cl [Example 14, (4-Chloro-3-methyl-phenyl)-[4-(3-pyridin-2-yl-1H-pyrazol-4-yl)-pyridin-2-yl]-amine]		212 °C	≤ 5 µM
Fc1ccc(Nc2cc(-c3c[nH]nc3-c3ccccn3)ccn2)cc1 [Example 3]		200 °C	≤ 5 µM
c1ccc(-c2n[nH]cc2-c2ccnc(Nc3ccc(OCCN4CCCC4)cc3)c2)nc1 [Example 12, [4-(3-Pyridin-2-yl-1H-pyrazol-4-yl)-pyridin-2-yl]-[4-(2-pyrrolidin-1-yl-ethoxy)-phenyl]-amine]		224 °C	≤ 5 µM
FC(F)(F)c1ccc(Nc2cc(-c3c[nH]nc3-c3ccccn3)ccn2)cc1 [Example 21, [4-(3-Pyridin-2-yl-1H-pyrazol-4-yl)-pyridin-2-yl]-(4-trifluoromethyl-phenyl)-amine]		207 °C	≤ 5 µM
c1ccc(-c2n[nH]cc2-c2ccnc(Nc3ccc(OCCN4CCCCC4)cc3)c2)nc1 [Example 27, [4-(2-Piperidin-1-yl-ethoxy)phenyl]-[4-(3-pyridin-2-yl-1H-pyrazol-4-yl)-pyridin-2-yl]-amine]		176 °C	≤ 5 µM
FC(F)(F)Oc1cccc(Nc2cc(-c3c[nH]nc3-c3ccccn3)ccn2)c1 [Example 19, [4-(3-Pyridin-2-yl-1H-pyrazol-4-yl)-pyridin-2-yl]-(3-trifluoromethoxy-phenyl)-amine]		102.8 °C	≤ 5 µM
CS(=O)(=O)c1cccc(Nc2cc(-c3c[nH]nc3-c3ccccn3)ccn2)c1 [Example 5]		146 °C	≤ 5 µM
Cc1ccc(Nc2cc(-c3c[nH]nc3-c3ccccn3)ccn2)cc1 [Example 18, [4-(3-Pyridin-2-yl-1H-pyrazol-4-yl)-pyridin-2-yl]-p-tolyl-amine]		221 °C	≤ 5 µM
COc1ccc(Nc2cc(-c3c[nH]nc3-c3ccccn3)ccn2)cc1 [Example 17, (4-Methoxy-phenyl)-[4-(3-pyridin-2-yl-1H-pyrazol-4-yl)-pyridin-2-yl]-amine]		219 °C	≤ 5 µM
